Laboratory results: paper PMC9116130 (Biochemical pharmacology, 2020)
Where a SMILES comes first, the peptide text is derived from it. Bridges are numbered along the chain shown (N, C = ends).

Assays:
rNaV1.4 = rNaV1.4 (Rattus norvegicus, UniProt P15390); experiment: Two-electrode voltage-clamp on Xenopus laevis oocytes expressing NaV1.4; settings: for inhibition at 100 µM: read-out: Maximum % inhibition NaV1.4, peptide at 100 μM
mNaV1.6 = mNaV1.6 (Mus musculus, UniProt Q9WTU3); experiment: Two-electrode voltage-clamp on Xenopus laevis oocytes expressing NaV1.6; settings: for inhibition at 100 µM: read-out: Maximum % inhibition NaV1.6, peptide at 100 μM
rNaV1.8 = rNaV1.8 (Rattus norvegicus, UniProt Q62968); experiment: Two-electrode voltage-clamp on Xenopus laevis oocytes expressing NaV1.8; settings: for inhibition at 100 µM: read-out: Maximum % inhibition NaV1.8
rNaV1.2 = rNaV1.2 (Rattus norvegicus, UniProt P04775); experiment: Two-electrode voltage-clamp on Xenopus laevis oocytes expressing NaV1.2; settings: for inhibition at 100 µM: read-out: Maximum % inhibition NaV1.2, peptide at 100 μM
hNaV1.5 = hNaV1.5 (Homo sapiens, UniProt Q14524); experiment: Two-electrode voltage-clamp on Xenopus laevis oocytes expressing NaV1.5; settings: for inhibition at 100 µM: read-out: Maximum % inhibition NaV1.5

rNaV1.8, sequence (Q62968 whole entry): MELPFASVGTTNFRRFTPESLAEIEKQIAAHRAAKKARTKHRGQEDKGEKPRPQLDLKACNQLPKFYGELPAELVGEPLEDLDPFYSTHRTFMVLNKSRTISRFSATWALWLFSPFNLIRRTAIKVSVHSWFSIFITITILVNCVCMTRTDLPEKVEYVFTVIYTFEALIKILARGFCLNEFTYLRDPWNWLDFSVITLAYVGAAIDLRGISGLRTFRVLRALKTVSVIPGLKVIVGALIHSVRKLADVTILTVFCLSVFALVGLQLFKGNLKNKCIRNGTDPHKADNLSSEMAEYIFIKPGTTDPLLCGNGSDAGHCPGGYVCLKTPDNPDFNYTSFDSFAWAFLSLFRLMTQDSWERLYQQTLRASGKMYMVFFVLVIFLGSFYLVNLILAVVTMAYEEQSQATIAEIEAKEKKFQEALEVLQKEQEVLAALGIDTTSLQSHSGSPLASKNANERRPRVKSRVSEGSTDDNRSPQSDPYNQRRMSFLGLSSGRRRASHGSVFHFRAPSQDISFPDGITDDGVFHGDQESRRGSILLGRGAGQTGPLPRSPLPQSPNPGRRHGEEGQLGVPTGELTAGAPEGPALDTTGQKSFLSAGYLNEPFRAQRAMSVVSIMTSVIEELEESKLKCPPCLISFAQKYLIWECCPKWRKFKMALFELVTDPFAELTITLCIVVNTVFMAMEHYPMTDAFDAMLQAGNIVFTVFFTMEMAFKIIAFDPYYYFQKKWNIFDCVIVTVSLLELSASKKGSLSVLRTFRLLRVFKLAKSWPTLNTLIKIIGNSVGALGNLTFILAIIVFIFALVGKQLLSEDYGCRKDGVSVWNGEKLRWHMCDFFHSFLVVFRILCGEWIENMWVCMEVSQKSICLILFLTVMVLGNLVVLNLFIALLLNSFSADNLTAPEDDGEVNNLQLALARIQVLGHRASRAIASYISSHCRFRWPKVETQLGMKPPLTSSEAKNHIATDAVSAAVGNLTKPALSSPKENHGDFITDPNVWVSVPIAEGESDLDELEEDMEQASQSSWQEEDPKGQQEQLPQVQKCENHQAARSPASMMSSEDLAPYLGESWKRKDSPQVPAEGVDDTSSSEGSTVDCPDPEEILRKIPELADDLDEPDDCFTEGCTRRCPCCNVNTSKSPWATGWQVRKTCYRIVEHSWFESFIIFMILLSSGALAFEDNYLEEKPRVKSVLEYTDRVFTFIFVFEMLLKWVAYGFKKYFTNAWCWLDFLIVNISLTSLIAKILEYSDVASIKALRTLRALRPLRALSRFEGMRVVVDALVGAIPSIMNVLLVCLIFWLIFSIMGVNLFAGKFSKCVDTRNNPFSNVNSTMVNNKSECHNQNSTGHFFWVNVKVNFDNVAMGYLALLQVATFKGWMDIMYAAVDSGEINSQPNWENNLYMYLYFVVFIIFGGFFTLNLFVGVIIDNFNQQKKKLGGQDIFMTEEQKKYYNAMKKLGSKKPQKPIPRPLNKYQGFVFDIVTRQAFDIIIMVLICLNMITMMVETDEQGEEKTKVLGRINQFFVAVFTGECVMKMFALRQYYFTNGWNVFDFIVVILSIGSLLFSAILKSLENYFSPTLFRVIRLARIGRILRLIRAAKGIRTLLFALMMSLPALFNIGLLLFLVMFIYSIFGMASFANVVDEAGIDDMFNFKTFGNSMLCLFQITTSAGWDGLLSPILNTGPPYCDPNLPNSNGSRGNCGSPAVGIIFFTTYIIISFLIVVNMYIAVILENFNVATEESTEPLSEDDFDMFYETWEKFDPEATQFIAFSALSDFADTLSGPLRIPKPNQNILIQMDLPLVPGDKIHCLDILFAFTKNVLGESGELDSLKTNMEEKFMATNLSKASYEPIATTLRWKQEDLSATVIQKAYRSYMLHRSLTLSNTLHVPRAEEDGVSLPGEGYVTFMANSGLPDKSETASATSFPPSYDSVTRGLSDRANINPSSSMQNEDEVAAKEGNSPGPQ
mNaV1.6, sequence (Q9WTU3 whole entry): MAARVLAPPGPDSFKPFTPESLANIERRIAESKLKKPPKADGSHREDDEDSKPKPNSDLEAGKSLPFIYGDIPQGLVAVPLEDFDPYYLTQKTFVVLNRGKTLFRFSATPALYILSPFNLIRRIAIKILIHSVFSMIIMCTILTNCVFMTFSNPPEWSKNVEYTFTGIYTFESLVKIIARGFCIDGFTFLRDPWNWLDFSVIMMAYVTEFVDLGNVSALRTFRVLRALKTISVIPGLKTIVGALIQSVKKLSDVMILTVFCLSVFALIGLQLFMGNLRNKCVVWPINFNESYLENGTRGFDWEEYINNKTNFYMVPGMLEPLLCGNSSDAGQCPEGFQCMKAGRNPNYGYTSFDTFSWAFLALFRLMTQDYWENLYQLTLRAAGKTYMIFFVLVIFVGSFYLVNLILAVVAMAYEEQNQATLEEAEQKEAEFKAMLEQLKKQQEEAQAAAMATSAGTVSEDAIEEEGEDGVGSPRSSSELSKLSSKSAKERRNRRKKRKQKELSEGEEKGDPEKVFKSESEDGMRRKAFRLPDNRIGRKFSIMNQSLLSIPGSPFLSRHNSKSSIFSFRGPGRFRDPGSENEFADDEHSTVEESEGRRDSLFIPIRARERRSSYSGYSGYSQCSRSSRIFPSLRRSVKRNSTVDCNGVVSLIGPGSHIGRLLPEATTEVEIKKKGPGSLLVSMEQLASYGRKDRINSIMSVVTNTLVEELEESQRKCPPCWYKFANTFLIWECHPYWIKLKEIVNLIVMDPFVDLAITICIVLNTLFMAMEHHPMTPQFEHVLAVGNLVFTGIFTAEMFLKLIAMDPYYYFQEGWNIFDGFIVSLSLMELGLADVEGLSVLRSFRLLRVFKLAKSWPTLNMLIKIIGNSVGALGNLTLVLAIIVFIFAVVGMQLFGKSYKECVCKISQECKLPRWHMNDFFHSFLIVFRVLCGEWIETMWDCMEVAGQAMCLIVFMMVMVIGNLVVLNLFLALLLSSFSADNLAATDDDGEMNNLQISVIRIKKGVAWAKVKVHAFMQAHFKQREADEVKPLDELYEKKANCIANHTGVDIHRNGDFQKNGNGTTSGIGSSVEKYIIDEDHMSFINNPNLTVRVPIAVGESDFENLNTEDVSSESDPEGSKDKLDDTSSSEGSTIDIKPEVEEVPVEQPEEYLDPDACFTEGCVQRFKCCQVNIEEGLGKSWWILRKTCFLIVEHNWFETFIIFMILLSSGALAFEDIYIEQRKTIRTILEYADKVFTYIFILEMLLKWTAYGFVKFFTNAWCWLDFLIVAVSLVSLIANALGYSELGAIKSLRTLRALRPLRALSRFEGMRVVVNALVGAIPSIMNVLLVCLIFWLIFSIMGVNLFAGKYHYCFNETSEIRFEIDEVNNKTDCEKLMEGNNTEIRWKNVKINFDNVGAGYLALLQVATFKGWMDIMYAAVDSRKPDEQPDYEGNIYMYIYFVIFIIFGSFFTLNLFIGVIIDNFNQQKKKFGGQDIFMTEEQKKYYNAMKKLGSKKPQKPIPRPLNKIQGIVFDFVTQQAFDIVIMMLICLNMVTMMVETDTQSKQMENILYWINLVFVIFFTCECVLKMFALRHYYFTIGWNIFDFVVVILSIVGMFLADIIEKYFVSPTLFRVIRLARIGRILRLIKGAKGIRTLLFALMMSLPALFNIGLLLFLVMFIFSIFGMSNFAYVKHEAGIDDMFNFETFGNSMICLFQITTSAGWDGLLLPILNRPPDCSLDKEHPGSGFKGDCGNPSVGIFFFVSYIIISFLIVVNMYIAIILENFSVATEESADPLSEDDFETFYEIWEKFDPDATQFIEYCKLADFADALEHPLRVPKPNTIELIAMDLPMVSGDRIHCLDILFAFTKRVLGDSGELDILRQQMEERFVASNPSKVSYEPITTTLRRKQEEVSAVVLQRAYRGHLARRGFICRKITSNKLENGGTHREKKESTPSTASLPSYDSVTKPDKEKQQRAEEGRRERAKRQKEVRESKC

| Compound | IC50 (rNaV1.4) | inhibition at 100 µM (rNaV1.4) | IC50 (mNaV1.6) | inhibition at 100 µM (mNaV1.6) | IC50 (rNaV1.8) | inhibition at 100 µM (rNaV1.8) | IC50 (rNaV1.2) | inhibition at 100 µM (rNaV1.2) | IC50 (hNaV1.5) | inhibition at 100 µM (hNaV1.5) | Maximum % inhibition NaV1.2 (rNaV1.2; peptide at 100 μM, 100 µM) | Maximum % inhibition NaV1.4 (rNaV1.4; peptide at 100 μM, 100 µM) | Maximum % inhibition NaV1.6 (mNaV1.6; peptide at 100 μM, 100 µM) |
| --- | --- | --- | --- | --- | --- | --- | --- | --- | --- | --- | --- | --- | --- |
| C[C@@H]1NC(=O)[C@H](Cc2c[nH]c3ccccc23)NC(=O)[C@H](CCCNC(=N)N)NC(=O)[C@H](CCCCN)NC(=O)[C@@H](N)CSSC[C@@H](C(N)=O)NC(=O)[C@H](CCCNC(=N)N)NC(=O)[C@H](CC(N)=O)NC(=O)[C@H](Cc2c[nH]c3ccccc23)NC(=O)[C@H](CCCNC(=N)N)NC1=O [PnCS1[R2K], CKRWARWNRC ^*] (H-CKRWARWNRC-NH2; disulfide 1-10) | 800 ± 300 nM | 93% | 600 ± 200 nM | 85% | > 100000 nM | 0% | 1100 ± 500 nM | 92% | 2500 ± 500 nM | 82% | – | – | – |
| C[C@@H]1NC(=O)[C@H](Cc2c[nH]c3ccccc23)NC(=O)[C@H](C)NC(=O)[C@H](CCCNC(=N)N)NC(=O)[C@@H](N)CSSC[C@@H](C(N)=O)NC(=O)[C@H](CCCNC(=N)N)NC(=O)[C@H](CC(N)=O)NC(=O)[C@H](Cc2c[nH]c3ccccc23)NC(=O)[C@H](CCCNC(=N)N)NC1=O [PnCS1[R3A], CRAWARWNRC ^*] (H-CRAWARWNRC-NH2; disulfide 1-10) | 1600 ± 500 nM | 89% | 1900 ± 400 nM | 87% | > 100000 nM | 0% | 1800 ± 300 nM | 86% | > 100000 nM | 51% | – | – | – |
| C[C@@H]1NC(=O)[C@H](Cc2c[nH]c3ccccc23)NC(=O)[C@H](CCC(=O)O)NC(=O)[C@H](CCCNC(=N)N)NC(=O)[C@@H](N)CSSC[C@@H](C(N)=O)NC(=O)[C@H](CCCNC(=N)N)NC(=O)[C@H](CC(N)=O)NC(=O)[C@H](Cc2c[nH]c3ccccc23)NC(=O)[C@H](CCCNC(=N)N)NC1=O [PnCS1[R3E], CREWARWNRC ^*] (H-CREWARWNRC-NH2; disulfide 1-10) | > 100000 nM | 36% | > 100000 nM | 24% | > 100000 nM | 0% | > 100000 nM | 52% | > 100000 nM | 21% | – | – | – |
| C[C@@H]1NC(=O)[C@H](Cc2c[nH]c3ccccc23)NC(=O)[C@H](CCCCN)NC(=O)[C@H](CCCNC(=N)N)NC(=O)[C@@H](N)CSSC[C@@H](C(N)=O)NC(=O)[C@H](CCCNC(=N)N)NC(=O)[C@H](CC(N)=O)NC(=O)[C@H](Cc2c[nH]c3ccccc23)NC(=O)[C@H](CCCNC(=N)N)NC1=O [PnCS1[R3K], CRKWARWNRC ^*] (H-CRKWARWNRC-NH2; disulfide 1-10) | 600 ± 300 nM | 92% | 800 ± 300 nM | 86% | > 100000 nM | 0% | 800 ± 300 nM | > 95% | 2700 ± 600 nM | 94% | 96% | – | – |
| C[C@@H]1NC(=O)[C@H](C)NC(=O)[C@H](Cc2c[nH]c3ccccc23)NC(=O)[C@H](CCCNC(=N)N)NC(=O)[C@H](CCCNC(=N)N)NC(=O)[C@@H](N)CSSC[C@@H](C(N)=O)NC(=O)[C@H](CCCNC(=N)N)NC(=O)[C@H](CC(N)=O)NC(=O)[C@H](Cc2c[nH]c3ccccc23)NC1=O [PnCS1[R6A], CRRWAAWNRC ^*] (H-CRRWAAWNRC-NH2; disulfide 1-10) | 500 ± 200 nM | > 95% | 900 ± 200 nM | > 95% | > 100000 nM | 0% | 9200 ± 1100 nM | 73% | 7600 ± 2200 nM | 78% | – | 90% | 96% |
